According to US12576127B2, “Fibroblast binding agents and use thereof” (Orionis Biosciences, Inc., priority 2018, dated 2026):

Test system: B16BL6 cells
Test: B16BL6 tumor model (Example 8)
Type: in vivo, mouse
Details: p.l. days 7-15, FIGS. 14A-B
Procedure: Mice were maintained in pathogen-free conditions in a temperature-controlled environment with 12/12 hour light/dark cycles and received food and water ad libitum. Female C57BL/6J mice (Charles River Laboratories, Saint-Germain sur l'Arbresle, France) were inoculated with B16BL6 or MC38 or Panc02 cells, at the age of 8 weeks, using a 30G insulin syringe, in 50 μl suspension, on the shaved flank of briefly sedated mice (using 4% isoflurane). B16BL6 cells are a murine melanoma cell line that are typically used as a model for human skin cancers with increased resistance to doxorubicin. MC38 cells are derived from a murine colon adenocarcinoma and are typically used as a model for human colon cancers. Panc02 cells are derived from a murine pancreatic ductal adenocarcinoma and are typically used as a model for human pancreatic cancers.
All tumor treatments were done perilesionally (p.l.), which is s.c. at the tumor border, starting at day 7 after tumor inoculation. Mice received FAP-AFN or FAP-WTmIFN treatments on days 7, 8, 9, 10, 12, 13, 14 and 15. Control mice were treated with PBS on the same days. FAP-AFN or FAP-VVTmIFN were given about […] (1.8 mg/kg). […]

SMILES: COc1cccc2c1C(=O)c1c(O)c3c(c(O)c1C2=O)C[C@@](O)(C(=O)CO)C[C@@H]3O[C@H]1C[C@H](N)[C@H](O)[C@H](C)O1 [doxorubicin]
- tumor growth: tumor stasis at best, but no tumor regression
